{
  "source": "paper PMC4149238",
  "about": "“Systemic delivery of P42 peptide: a new weapon to fight Huntington’s disease” (Acta Neuropathologica Communications, 2014)",
  "key": {"[1]": {"test_system": "GFP-hHtt^171aa-Q136 aggregation", "test": "polyQ-hHtt aggregation in transfected HeLa cells (microscopy)", "type": "cell-based, human", "settings": "HeLa cells co-transfected with GFP-hHtt171aa-Q136 and vector expressing Cherry-tagged peptide, vs empty vector", "procedure": "(§1) HeLa cells were grown and maintained in DMEM medium (Gibco) supplemented with 10% fetal calf serum and glutamine. HeLa cells were grown in 6 well plates, and pDdest53-GFP-hHtt^171aa-136Q (0.75 μg) was transfected with JetPei reagent (Qbiogene). Equal amounts of pcDNA-Cherry-P42 or control vector were added for each transfection to level the total amount of plasmid DNA. To test the internalization of exogenous peptide, synthesized TAMRA-P42-TAT was added at the same time as pDest53-GFP-hHtt^171aa-Q136 transfection, at different concentrations (0, 0.5, 1, 5, 10 or 20 μM). Cells were incubated with plasmid and peptide for 12 h. Then the medium was washed twice with PBS, the cells trypsinized, and grown on a coverslip with new DMEM medium for 6 h. This step was necessary to eliminate the peptide that crystallizes on the well. Eventually, cells were fixed with 4% paraformaldehyde and immunostained for microscopic analysis. To observe the internalization of the peptide TAMRA-P42-TAT, the signal was amplified by anti-TAMRA immunostaining (1:500- Invitrogen). Nuclei were counterstained with DAPI (4′, 6 diamino-2-phenylindole). The pictures were taken with a confocal laser scanning microscope model LSM780 (Carl Zeiss)."}, "[2]": {"test_system": "flies expressing hHtt exon1 with expanded polyQ", "settings": "cited from earlier work", "text": "Most research undertaken to find a cure for HD focus on the mutated allele (trying to reduce its expression), or on the polyQ stretch that is responsible for aggregation, but that is also present in other neurodegenerative diseases. Our approach is based on the observation that the ratio between normal and mutant Huntingtin is a crucial factor in the onset and progression of the disease. In a previous work, we confirmed the protective role of wild-type N-terminus Htt. We further screened human hHtt, for peptides able to prevent polyQ-hHtt aggregation i ... || The efficient rescue supported by P42 administration represents one of the best therapeutic effects described so far. Therapeutic research currently targets mutant Htt at transcriptional or post-translational level. The recent works in RNA interference or ASO strategies attempt to reduce the expression of the mutant transcript. Despite recent progress, the limitation of this approach lays in the effects on the wild-type allele and the aggravation of the loss of function effects. Biochemical molecules and intrabodies have also been designed against the protein, in order to target abnorma ..."}, "HeLa cells [3]": {"test_system": "HeLa cells", "test": "MTT test of HeLa cell survival", "type": "cell-based, human", "settings": "large excess of peptide, data not shown"}, "[4]": {"test_system": "brain of wild-type C57BL/6 J mice", "test": "Brain distribution of TAMRA-P42-TAT after ICV injection", "type": "in vivo, mouse", "procedure": "To test the stability of the peptide in the brain, single intracerebroventricular (ICV) injection of peptides was performed in the right ventricle of C57BL/6 mice as described in [15]. 5 μg or 1 μg of TAMRA-P42-TAT were stereotaxically injected into the right lateral ventricle (coordinates 1 mm right lateral to bregma and 3 mm ventral to the skull surface) of C57BL/6 J mice using a 10 μl Hamilton syringe at a rate of 0.2 μl to 1 μl/min. As a control, saline was injected in the same volume and at the same rate. […]\nTAMRA-P42-TAT injected mice were also immunostained with rabbit monoclonal anti-DARPP32 (MAb2306 - Cell Signaling Technology - 1: 1600), secondary detected by Alexa 488 anti-rabbit (1: 2000) to label the striatum, and with mouse monoclonal anti-NeuN (MAB377 – Millipore - 1: 1000), secondary detected by Dye light blue anti-mouse (1: 500), as a neuronal marker."}, "HeLa cells [5]": {"test_system": "HeLa cells", "test": "Internalization of exogenous peptide into HeLa cells", "type": "cell-based, human", "settings": "synthetic TAMRA end-labelled peptide in culture medium, anti-TAMRA immunostaining, confocal", "procedure": "as §1"}, "[6]": {"test_system": "brain of wild-type C57BL/6 J mice", "test": "Brain targeting after buccal/rectal NP42T (MALDI Imaging Mass Spectrometry)", "type": "in vivo, mouse", "settings": "NP42T 210 μg, four buccal and four rectal administrations, 3 h, MALDI IMS, two mice", "procedure": "For MALDI analysis, wild-type C57BL/6 J mice have been injected either by ICV (2.1 μg), or treated with empty NP, or with NP42T (210 μg) microemulsions. For NP and NP42T, four buccal and four rectal administrations (1 ml/kg) have been performed, spaced by 30 minutes to ensure mucosa internalization. Two mice have been treated for each condition and sacrificed 3 h after the injections.\nTissue preparation and MALDI imaging analysis: Frozen brain sections were cut in 15 μm slices using an HM 550 OVPD cryostat (Fisher Scientific, Illkirch, France), set at −20°C, mounted on ITO coated conductive glass slides and allowed to thaw and desiccate in a vacuum desiccator. Tissue sections were then coated manually with a 10 mg/ml α-cyano-4-hydroxycinnamic acid dissolved in 50% acetonitrile (ACN) and 0.1% trifluoroacetic acid (TFA).\nMALDI imaging was performed using the 4800 Plus MALDI TOF/TOF^TM Analyzer (AB Sciex). Image acquisition was achieved using the 4800 imaging tool software (MSI imaging). […]\nThe two dimensional ion image of the tissue section was analyzed using Tissue View^TM software (Applied Biosystems/MDS analytical technologies). A colour scale representing signal intensity is exported from Tissue View^TM software to provide semi quantitative information."}, "[7]": {"settings": "mice brain soluble extract, 15 μg peptide, incubation 0, 1, 3 and 6 h, MALDI-MS", "excerpt": "MALDI MS and MS/MS analysis: Spectra acquisition has been performed using the 4800 Plus MALDI TOF/TOF^TM mass spectrometer (ABSciex) controlled by the 4000 Series Explorer^TM. MS spectra were acquired in a reflector positive mode (mass range: m/z 700–4000, laser intensity set at 50% and 3000 total laser shots per spectrum, MS resolution ≥ 12000–17000). MS/MS precursor was selected manually with an absolute mass window of 1 Da and each MS/MS spectrum is the result of 1000 total laser shots with a laser intensity set at 50% and a MS/MS resolution ≥ 2000–5000. The fragmentation was performed at collision energy of 2 kV and a collision air pressure set at 10^−6 Torr."}, "wild-type mice": {"test_system": "wild-type mice", "test": "Tolerability in NP42T-treated wild-type mice", "type": "in vivo, mouse", "settings": "week 2 to 11", "description": "For animal experimentation, a cohort of 30 females was divided into four groups (WT treated with empty NP (n = 5); WT treated with NP42T (n = 8); R6/2 treated with empty NP (n = 8); R6/2 treated with NP42T (n = 9)). Administrations were performed five days a week, at the same time of the day, starting in 2-week-old mice. The treatment was performed until the mice were sacrificed (at week 11). NP42T peptide (600 μg/ml/kg) was administrated twice a day per mucosa, with two buccal injections until the mice were 4 week old, and via rectal and buccal injections for older animals older."}},
  "note": "Residues, ends and D or L forms follow the SMILES beside them. *: point of attachment. 5TAMRA = CN(C)c1ccc2c(c1)Oc1cc(N(C)C)ccc1C21OC(=O)c2cc(C(=O)*)ccc21",
  "data": [
    {"molecule": "P42: 23aa peptide lying in the N-terminus (position 480–502 aa) of normal human Htt", "values": [
      {"measurement": "rescue of GFP-Htt^171aa-Q136 aggregation", "setting": "[1]", "value": "completely rescue"},
      {"measurement": "eye degeneration of flies expressing hHtt exon1 with expanded polyQ", "setting": "[2]; Drosophila model of HD", "value": "able to prevent eye degeneration"},
      {"measurement": "effects on lifespan", "setting": "[2]", "value": "partial"}
    ]},
    {"molecule": "CC[C@H](C)[C@H](NC(=O)[C@H](CC(=O)O)NC(=O)[C@H](Cc1c[nH]cn1)NC(=O)CNC(=O)[C@H](C)NC(=O)[C@H](CO)NC(=O)CNC(=O)[C@@H]1CCCN1C(=O)[C@@H](NC(=O)[C@H](CO)NC(=O)[C@@H](NC(=O)CNC(=O)[C@H](CO)NC(=O)[C@H](CO)NC(=O)[C@H](C)NC(=O)[C@H](C)NC(=O)c1ccc2c(c1)C(=O)OC21c2ccc(N(C)C)cc2Oc2cc(N(C)C)ccc21)C(C)C)[C@@H](C)O)C(=O)N[C@H](C(=O)N[C@H](C(=O)N[C@@H](CCC(=O)O)C(=O)N[C@@H](CCC(N)=O)C(=O)N1CCC[C@H]1C(=O)N[C@@H](CCCNC(=N)N)C(=O)N[C@@H](CO)C(=O)NCC(=O)NCC(=O)N[C@@H](Cc1ccc(O)cc1)C(=O)NCC(=O)N[C@@H](CCCNC(=N)N)C(=O)N[C@@H](CCCCN)C(=O)N[C@@H](CCCCN)C(=O)N[C@@H](CCCNC(=N)N)C(=O)N[C@@H](CCCNC(=N)N)C(=O)N[C@@H](CCC(N)=O)C(=O)N[C@@H](CCCNC(=N)N)C(=O)N[C@@H](CCCNC(=N)N)C(=O)N[C@@H](CCCNC(=N)N)C(=O)O)[C@@H](C)O)[C@@H](C)CC", "note": "[TAMRA-P42-TAT] (5TAMRA-AASSGVSTPGSAGHDIITEQPRSGGYGRKKRRQRRR-OH; N-terminus and C-terminus assumed)", "values": [
      {"measurement": "IC50 on HeLa cell survival (MTT test)", "setting": "HeLa cells [3]", "value": "could not be measured"},
      {"measurement": "detection in brain 24 hrs after ICV injection", "setting": "[4]; C57BL/6 J mice, ICV 5 μg or 1 μg, 24 hrs, data not shown, n = 12", "value": "still detected"},
      {"measurement": "distribution in the striatum after ICV injection", "setting": "[4]; wild-type C57BL/6 J mice, ICV, sacrificed 3 hours after injection, TAMRA signal, DARPP32/NeuN co-staining", "value": "largely diffusing within the neurons"},
      {"measurement": "uptake into cultured cells", "setting": "HeLa cells [5]", "value": "taken up by almost all the cells"}
    ]},
    {"molecule": "CC[C@H](C)[C@H](NC(=O)[C@H](CC(=O)O)NC(=O)[C@H](Cc1c[nH]cn1)NC(=O)CNC(=O)[C@H](C)NC(=O)[C@H](CO)NC(=O)CN)C(=O)N[C@H](C(=O)N[C@H](C(=O)N[C@@H](CCC(=O)O)C(=O)N[C@@H](CCC(N)=O)C(=O)N1CCC[C@H]1C(=O)N[C@@H](CCCNC(=N)N)C(=O)N[C@@H](CO)C(=O)NCC(=O)NCC(=O)N[C@@H](Cc1ccc(O)cc1)C(=O)NCC(=O)O)[C@@H](C)O)[C@@H](C)CC", "note": "[m/z 1801.84 derivative] (H-GSAGHDIITEQPRSGGYG-OH)", "values": [
      {"measurement": "presence in the brain after Aonys administration", "setting": "[6]", "value": "still present in the brain"}
    ]},
    {"molecule": "CC[C@H](C)[C@H](NC(=O)[C@H](CC(=O)O)NC(=O)[C@H](Cc1c[nH]cn1)NC(=O)CNC(=O)[C@H](C)NC(=O)[C@H](CO)NC(=O)CNC(=O)[C@@H]1CCCN1C(=O)[C@@H](NC(=O)[C@H](CO)NC(=O)[C@@H](NC(=O)CNC(=O)[C@H](CO)NC(=O)[C@H](CO)NC(=O)[C@H](C)NC(=O)[C@H](C)N)C(C)C)[C@@H](C)O)C(=O)N[C@H](C(=O)N[C@H](C(=O)N[C@@H](CCC(=O)O)C(=O)N[C@@H](CCC(N)=O)C(=O)N1CCC[C@H]1C(=O)N[C@@H](CCCNC(=N)N)C(=O)N[C@@H](CO)C(=O)NCC(=O)NCC(=O)N[C@@H](Cc1ccc(O)cc1)C(=O)NCC(=O)N[C@@H](CCCNC(=N)N)C(=O)N[C@@H](CCCCN)C(=O)N[C@@H](CCCCN)C(=O)N[C@@H](CCCNC(=N)N)C(=O)N[C@@H](CCCNC(=N)N)C(=O)N[C@@H](CCC(N)=O)C(=O)N[C@@H](CCCNC(=N)N)C(=O)N[C@@H](CCCNC(=N)N)C(=O)N[C@@H](CCCNC(=N)N)C(=O)O)[C@@H](C)O)[C@@H](C)CC", "note": "[P42-TAT] (H-AASSGVSTPGSAGHDIITEQPRSGGYGRKKRRQRRR-OH)", "values": [
      {"measurement": "presence in the brain after Aonys administration", "setting": "[6]", "value": "able to reach the brain"},
      {"measurement": "time until full length peptide was degraded", "setting": "[7]", "value": "≤ 1", "unit": "h"},
      {"measurement": "toxicity noticed during the study", "setting": "wild-type mice", "value": "no toxicity"}
    ]}
  ]
}
